Test results published in publication PMC4550478, “Metronidazole-triazole conjugates: Activity against Clostridium difficile and parasites” (European Journal of Medicinal Chemistry, 2015).
≈ marks a conversion by molar mass, not a printed value. Where two headings read alike, the source gives them in different places. Each block holds one molecule with its values, some of them ahead of it.

Tests used:
[1] = test system: C. difficile 630 ATCC BAA-1382; assay: MIC broth microdilution, C. difficile 630; format: cell-based, Clostridium difficile; settings: Clostridioides difficile, ATCCBAA1382, MtzS, 24 h, median of at least n = 4
Experimental: (§1) All compounds were tested for activity against a set of anaerobic C. difficile bacteria (630 ATCC BAA-1382, NAP1/027 M7404, NAP1/027 ATCC BAA-1803, VPI10463 ATCC 43255, CD26A54_S and CD26A54_R) and representative ESKAPE pathogens S. aureus (MRSA ATCC 43300), E. coli (ATCC 25922), K. pneumoniae (ATCC 700603), A. baumannii (ATCC 19606) and P. aeruginosa (ATCC 27853) using a standard broth microdilution assay. Selected compounds were tested for activity against H. pylori strains (26695, and clinical isolates MtzS 13/25, MtzR 98/285 and MtzR 13/61) using agar plate dilution, and for antimicrobial activity against […] Gram-positive bacterial strains: Enterococcus faecalis (VanA clinical isolate), Enterococcus faecium (MDR VanA ATCC 51559), Streptococcus pneumoniae (MDR ATCC 700677), S. aureus (MRSA ATCC 43300, MRSA clinical isolate, MRSA/DRSA clinical isolate, GISA NARSA NRS 1, GISA NARSA NRS 17, VRSA NARSA VRS1, VRSA NARSA VRS4 and VRSA NARSA VRS10) using broth microdilution. C. difficile strains were grown at 37 °C in a COY anaerobic chamber (5% H2, 10% CO2, 85% N2). H. pylori strains were grown at 37 °C under a microaerobic atmosphere (5% O2, 10% CO2). All facultative anaerobic bacteria were grown at 37 °C with normal atmospheric oxygen levels. All experiments were performed in duplicate with metronidazole, vancomycin, linezolid or colistin as positive controls for relevant strains (see Table 1). Positive growth control of bacteria and DMSO as well as a negative control of only media were included for every plate. Full assay details are provided in the supplementary information.
(§2) C. difficile ATCC BAA-1382, ATCC BAA-1803, ATCC 43255 and M7404 heat shocked spore stocks (10 µL) were transferred into the anaerobic chamber and 10 µL streaked onto pre-reduced (at least 2.5 hr in anaerobic chamber) BHIS agar plates supplemented with 0.1% w/v sodium taurocholate (BHIS(TA)). Plates were incubated for 24 hours prior to assay to give colonies of size 1-3mm diameter with characteristic uneven borders.
(§3) The minimum inhibition concentration was determined according to the CLSI Methods with modifications in broth and inoculum for C. difficile according to Babakhani et al.^7,8 Briefly, compounds were prepared to 20X final concentration in 100% water, 60% DMSO and 40% water or 60% DMSO and 40% media. The compounds along with standard antibiotics were serially diluted two-fold across the wells of 96-well non-binding surface plates (Non binding surface, Corning). The plates were placed in the anaerobic chamber overnight to reduce. C. difficile bacteria from BHIS(TA) agar plates were cultured anaerobically in BHIS at 37 °C overnight. A sample of culture was then diluted 40-fold in BHIS broth and incubated at 37 °C for approximately 4.5 hrs. The resultant mid-log phase culture (OD600= 0.5-0.6) was diluted to the final concentration of ~1×10^6 CFU/mL, then 50 µL was added to each well of the compound-containing 96-well plates. This gave final cell concentration of 5×10^5 CFU/mL, final volume 100 µL and 3% maximum DMSO concentration. Compound concentration was typically from 64 to 0.03 µg/mL. An antibiotic standard was included on each 96 well plate as well as a positive growth control (no compound) and sterility control (no bacteria). All the plates were covered and incubated at 37 °C for 24 h. MICs were the lowest concentration showing no visible growth.

[2] = test system: C. difficile VPI10463 ATCC 43255; assay: MIC broth microdilution, C. difficile VPI 10463; format: cell-based, Clostridium difficile; settings: Clostridioides difficile, ATCC 43255 / ATCC BAA-1803; VPI 10463, MtzS, 24 h, median of at least n = 4
Experimental: as §1, §2, §3

[3] = test system: C. difficile NAP1/027 M7404; assay: MIC broth microdilution, C. difficile NAP1/027 M7404; format: cell-based, Clostridium difficile; settings: Clostridioides difficile, NAP1/027M7404; NAP1/027 (footnote d: M7404), MtzS, 24 h, median of at least n = 4
Experimental: as §1, §2, §3

[4] = test system: C. difficile NAP1/027 CD26A54_R; assay: MIC broth microdilution, metronidazole resistant C. difficile CD26A54_R; format: cell-based, Clostridium difficile; settings: for MIC: Clostridioides difficile
[5] = test system: E. histolytica HM1:IMSS trophozoites; assay: ATP-bioluminescence growth and survival assay, E. histolytica; format: cell-based, Entamoeba histolytica; settings: Entamoeba histolytica; MtzS, 48 h, anaerobic, n = 3
Experimental: (§4) Compounds were tested for antiparasitic activity against E. histolytica (HM1:1MSS strain) and G. lamblia (WB, BRIS/87/HEPU/713 (713), BRIS/83/HEPU/106 (106) and the metronidazole resistant syngeneic line 713-M3 [[15,16]]) using an ATP-bioluminescence based screen for cell growth and survival [[17,18]]. Assay plates were inoculated with trophozoites (5 × 10^3 parasites/well) and incubated in the GasPak™ EZ Anaerobe Gas Generating Pouch Systems (VWR, West Chester, PA) to maintain anaerobic conditions throughout the incubation period. The assays were performed in triplicate using the CellTiter-Glo Luminescent Cell Viability Assay. Metronidazole was used as a positive control.
(§5) Trophozoites of E. histolytica strain HM1:IMSS and G. lamblia strains WB, BRIS/87/HEPU/713 (713),^10 BRIS/83/HEPU/106 (106)^11 and the metronidazole resistant syngenic line 713-M3^10,11 were axenically maintained in TYI-S-33 medium supplemented with penicillin (100 U/ml), streptomycin (100 µg/ml).^12 E. histolytica and G. lamblia trophozoites were counted using a particle counter (Beckman Coulter, Fullerton, CA). All experiments were performed using trophozoites harvested during the logarithmic phase of growth.
(§6) A three-fold serial dilution was then performed yielding a concentration range 0.25-625 µM. From this dilution plate, 4 µL were transferred into the 96-well screen plates followed by addition of 96 µL of trophozoites (5,000 parasites) to yield a final 8-point concentration range spanning 0.01- 25 µM. Assay plates were incubated for 48 h at 37 °C in the GasPak^TM EZ Anaerobe Gas Generating Pouch Systems (VWR, West Chester, PA) to maintain anaerobic condition throughout the incubation period. The assays were performed in triplicate using the CellTiter-Glo Luminescent Cell Viability Assay.^13

[6] = test system: G. lamblia WB trophozoites; assay: ATP-bioluminescence growth and survival assay, G. lamblia WB; format: cell-based, Giardia lamblia; settings: Giardia duodenalis; MtzS, 48 h, anaerobic, n = 3
Experimental: as §4, §5, §6

[7] = test system: G. lamblia BRIS/87/HEPU/713 (713); assay: ATP-bioluminescence growth and survival assay, G. lamblia 713; format: cell-based; settings: Giardia duodenalis, read-out: EC50 G. lamblia 713
Experimental: as §4, §5, §6

[8] = 24 hr incubation, read-out: MIC C. difficile NAP1/027 CD26A54_R 24 hr
[9] = CD26A54_R, MtzR, 48 h growth, BHIS broth, n = 8, read-out: MIC C. difficile NAP1/027 CD26A54_R 48 h

SMILES: Cc1ncc([N+](=O)[O-])n1CCO [Compound 1, metronidazole]
MIC [1]: 0.5 µg/mL (≈ 2.92 µM)
MIC [2]: 0.5 µg/mL (≈ 2.92 µM)
MIC [3]: 0.5 µg/mL (≈ 2.92 µM)
MIC C. difficile NAP1/027 CD26A54_R 24 hr ([4]; 24 hr incubation): 2 µg/mL (≈ 11.7 µM)
MIC [4, 8]: 2 µg/mL (≈ 11.7 µM)
MIC [4, 9]: 4 µg/mL (≈ 23.4 µM)
EC50 [5]: 5 µM
EC50 [6]: 7.9 µM
EC50 ([7]; MtzS, purified compounds, this study): 2.3 µM

SMILES: Cc1ncc([N+](=O)[O-])n1CCn1cc(-c2ccc(Cl)cc2)nn1 [Compound 4c, 1-(2-(2-methyl-5-nitro-1H-imidazol-1-yl)ethyl)-4-(4-chlorophenyl)-1H-1,2,3-triazole]
MIC [1]: 0.5 µg/mL (≈ 1.5 µM)
MIC [2]: 0.25 µg/mL (≈ 0.751 µM)
MIC [3]: 0.25 µg/mL (≈ 0.751 µM)
MIC [4, 8]: 8 µg/mL (≈ 24 µM)
MIC [4, 9]: 16 µg/mL (≈ 48.1 µM)
EC50 [5]: 3.6 µM
EC50 [6]: 0.2 µM
EC50 [7]: 1.2 µM

SMILES: Cc1ncc([N+](=O)[O-])n1CCn1cc(CN2CCS(=O)(=O)CC2)nn1 [Compound 4o, 1-(2-(2-methyl-5-nitro-1H-imidazol-1-yl)ethyl)-4-((1,1-dioxothiomorpholin-4-yl)methyl)-1H-1,2,3-triazole]
MIC [1]: > 64 µg/mL
MIC [2]: > 64 µg/mL
MIC [3]: > 64 µg/mL
MIC [4, 8]: > 64 µg/mL
MIC [4, 9]: > 64 µg/mL
EC50 [5]: > 25 µM
EC50 [6]: > 25 µM

SMILES: Cc1ncc([N+](=O)[O-])n1CCn1cc(Cc2ccccc2)nn1 [Compound 4k, 1-(2-(2-methyl-5-nitro-1H-imidazol-1-yl)ethyl)-4-benzyl-1H-1,2,3-triazole]
MIC [1]: 0.5 µg/mL (≈ 1.6 µM)
MIC [2]: 0.25 to 0.5 µg/mL (≈ 0.8 to 1.6 µM)
MIC [3]: 0.5 µg/mL (≈ 1.6 µM)
MIC [4, 8]: 2 µg/mL (≈ 6.4 µM)
MIC [4, 9]: 4 µg/mL (≈ 12.8 µM)
EC50 [5]: 1.9 µM
EC50 [6]: 0.7 µM
EC50 [7]: 0.32 µM

SMILES: Cc1ncc([N+](=O)[O-])n1CCn1cc(CO)nn1 [Compound 4q, 1-(2-(2-methyl-5-nitro-1H-imidazol-1-yl)ethyl)-4-(hydroxymethyl)-1H-1,2,3-triazole]
MIC [1]: 16 µg/mL (≈ 63.4 µM)
MIC [2]: 16 µg/mL (≈ 63.4 µM)
MIC [3]: 16 µg/mL (≈ 63.4 µM)
MIC [4, 8]: 16 µg/mL (≈ 63.4 µM)
MIC [4, 9]: 16 µg/mL (≈ 63.4 µM)
EC50 [5]: > 25 µM
EC50 [6]: > 25 µM

MIC [1]: > 64 µg/mL
MIC [2]: > 64 µg/mL
MIC [3]: > 64 µg/mL
MIC [4, 8]: > 64 µg/mL
MIC [4, 9]: > 64 µg/mL
SMILES: Cc1ncc([N+](=O)[O-])n1CCn1cc(CN)nn1.O=C(O)C(F)(F)F [Compound 4t, 1-(2-(2-methyl-5-nitro-1H-imidazol-1-yl)ethyl)-4-(aminomethyl)-1H-1,2,3-triazole trifluoroacetate salt]
EC50 [5]: > 25 µM
EC50 [6]: > 25 µM
